System: HT-1080 cells
Assay: Metabolic tracer analysis of pyrimidine synthesis (amide-15N-glutamine)
Type: cell-based, human
Conditions: Lip-1 10 μM
Protocol: Metabolomic analysis was performed as previously described (Liu, X., et al., Nat Cell Biol 22, 476-486 (2020)). Cells were seeded on 35 mm culture plates at a density sufficient to ensure approximately 70-80% confluence at the time of extraction. For metabolic tracer analysis of pyrimidine synthesis, HT-1080 cells were treated with RSL3 and/or Lip-1 for 2 hours and then were shifted to drug-free media containing amide-^15N-glutamine (this time point is defined as 0 hour). Metabolites were extracted at the indicated time points for subsequent analyses. Metabolites were extracted by rapidly aspirating the culture medium and then adding 0.6 mL of an 80% methanol: 20% water mixture at dry ice temperature. The plates were incubated on dry ice for 15 minutes before the cell material was scraped into eppendorf tubes pre-chilled on ice. The cell debris was pelleted by centrifugation at 13,000 RCF for 5 minutes at 4° C. and the supernatant was transferred to a fresh tube and stored on dry ice until analysis. […]
The complete platform consists of an Accela 1250 HPLC system, Accela Open Autosampler, MayLab Mistraswitch column oven and Exactive orbitrap mass spectrometer, controlled by the Xcalibur 3.0.63 software package. […] The data were analyzed using the MAVEN software suite57 with signal intensity determined as the Peak Area (Top). […]

## Clc1cccc(CN=C2Nc3ccccc3NC23CCNCC3)c1 [liproxstatin-1]
  rescue of RSL3-induced increase of 15N-UMP levels: completely rescued

— US20240148757A1, “USE OF DIHYDROOROTATE DEHYDROGENASE (DHODH) INHIBITORS TO TARGET FERROPTOSIS IN CANCER THERAPY” (BOARD OF REGENTS, THE UNIVERSITY OF TEXAS SYSTEM, priority 2021, published 2024)
